US12077503B2, “Substituted cyclic amides and their use as herbicides” (FMC CORPORATION, priority 2015, dated 2024)

What was measured:
Format in all cases: in vivo
corn (Zea mays) [1] = experiment: Test G Post-Emergence Protocol; details: Zea mays, post-emergence, 312 h, read-out: Corn damage rating
Outline: (§1)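 A glasshouse post-emergence test: 8-day-old plants sprayed at 15.625, 62.5 or 250 g/ha, then grown at 24/16 °C day/night with 14 h light and 65% humidity. Damage rated 13 days later, 0–100.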

[2] = system: ivy-leaved morning glory (Ipomoea hederacea); experiment: Test G Post-Emergence Protocol; details: Ipomoea, post-emergence, 312 h, read-out: Morningglory, Ivy-leaved damage rating
Outline: as §1

[3] = system: barnyardgrass (Echinochloa crus-galli); experiment: Test G Post-Emergence Protocol; details: Echinochloa crus-galli, post-emergence, 312 h, read-out: Barnyardgrass damage rating
Outline: as §1

[4] = system: giant foxtail (Setaria faberi); experiment: Test G Post-Emergence Protocol; details: Setaria faberi, post-emergence, 312 h, read-out: Foxtail, Giant damage rating
Outline: as §1

[5] = system: redroot pigweed (Amaranthus retroflexus); experiment: Test G Post-Emergence Protocol; details: Amaranthus retroflexus, post-emergence, 312 h, read-out: Pigweed, Redroot damage rating
Outline: as §1

[6] = system: velvetleaf (Abutilon theophrasti); experiment: Test G Post-Emergence Protocol; details: Abutilon theophrasti, post-emergence, 312 h, read-out: Velvetleaf damage rating
Outline: as §1

corn (Zea mays) [7] = experiment: Test G Pre-Emergence Protocol; details: Zea mays, pre-emergence, 312 h, evaluated after 13 days
Outline: (§2)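 Test compound in 0.5% Tween 20 acetone/water (50:50) was applied at three rates (15.625, 62.5, 250 g/ha) to soil sown one day earlier. After 13 days plants were scored for injury, where 0 means unaffected and 100 means completely damaged.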

[8] = system: ivy-leaved morning glory (Ipomoea hederacea); experiment: Test G Pre-Emergence Protocol; details: Ipomoea, pre-emergence, 312 h, evaluated after 13 days
Outline: as §2

[9] = system: barnyardgrass (Echinochloa crus-galli); experiment: Test G Pre-Emergence Protocol; details: Echinochloa crus-galli, pre-emergence, 312 h, evaluated after 13 days
Outline: as §2

[10] = system: giant foxtail (Setaria faberi); experiment: Test G Pre-Emergence Protocol; details: Setaria faberi, pre-emergence, 312 h, evaluated after 13 days
Outline: as §2

[11] = system: redroot pigweed (Amaranthus retroflexus); experiment: Test G Pre-Emergence Protocol; details: Amaranthus retroflexus, pre-emergence, 312 h, evaluated after 13 days
Outline: as §2

[12] = system: velvetleaf (Abutilon theophrasti); experiment: Test G Pre-Emergence Protocol; details: Abutilon theophrasti, pre-emergence, 312 h, evaluated after 13 days
Outline: as §2

[13] = 15.625 g ai/ha, evaluated after 13 days (100=total damage to plant; 0=no damage to plant)
[14] = 62.5 g ai/ha, evaluated after 13 days, 100=total damage to plant, 0=no damage to plant
[15] = 250 g ai/ha, evaluated after 13 days, 100=total damage to plant, 0=no damage to plant

Question: What does the source list for Cc1ccc([C@H]2CN(C)C(=O)[C@@H]2C(=O)Nc2ccc3cccnc3n2)cc1 (racemic) [Compound 1675]?
Answer: plant injury at 15.625 g/ha (corn (Zea mays) [1]; [13]): 0%; plant injury at 62.5 g/ha (corn (Zea mays) [1]; [14]): 0%; plant injury at 250 g/ha (corn (Zea mays) [1]; [15]): 0%; pest or weed control at 15.625 g/ha [2, 13]: 0%; pest or weed control at 62.5 g/ha [2, 14]: 0%; pest or weed control at 250 g/ha [2, 15]: 0%; pest or weed control at 15.625 g/ha [3, 13]: 0%; pest or weed control at 62.5 g/ha [3, 14]: 0%; pest or weed control at 250 g/ha [3, 15]: 0%; pest or weed control at 15.625 g/ha [4, 13]: 0%; pest or weed control at 62.5 g/ha [4, 14]: 0%; pest or weed control at 250 g/ha [4, 15]: 20%; pest or weed control at 15.625 g/ha [5, 13]: 0%; pest or weed control at 62.5 g/ha [5, 14]: 0%; pest or weed control at 250 g/ha [5, 15]: 0%; pest or weed control at 15.625 g/ha [6, 13]: 0%; pest or weed control at 62.5 g/ha [6, 14]: 0%; pest or weed control at 250 g/ha [6, 15]: 10%; plant injury at 15.625 g/ha (corn (Zea mays) [7]; 15.625 g ai/ha, read-out: Corn damage rating (100=total damage to plant; 0=no damage to plant)): 0%; plant injury at 62.5 g/ha (corn (Zea mays) [7]; 62.5 g ai/ha, 100=total damage to plant, 0=no damage to plant, read-out: Corn damage rating): 0%; plant injury at 250 g/ha (corn (Zea mays) [7]; 250 g ai/ha, read-out: Corn damage rating (100=total damage to plant; 0=no damage to plant)): 0%; pest or weed control at 15.625 g/ha ([8]; 15.625 g ai/ha, read-out: Morningglory, Ivy-leaved damage rating (100=total damage to plant; 0=no damage to plant)): 0%; pest or weed control at 62.5 g/ha ([8]; 62.5 g ai/ha, 100=total damage to plant, 0=no damage to plant, read-out: Morningglory, Ivy-leaved damage rating): 0%; pest or weed control at 250 g/ha ([8]; 250 g ai/ha, read-out: Morningglory, Ivy-leaved damage rating (100=total damage to plant; 0=no damage to plant)): 0%; pest or weed control at 15.625 g/ha ([9]; 15.625 g ai/ha, read-out: Barnyardgrass damage rating (100=total damage to plant; 0=no damage to plant)): 0%; pest or weed control at 62.5 g/ha ([9]; 62.5 g ai/ha, 100=total damage to plant, 0=no damage to plant, read-out: Barnyardgrass damage rating): 0%; pest or weed control at 250 g/ha ([9]; 250 g ai/ha, read-out: Barnyardgrass damage rating (100=total damage to plant; 0=no damage to plant)): 0%; pest or weed control at 15.625 g/ha ([10]; 15.625 g ai/ha, read-out: Foxtail, Giant damage rating (100=total damage to plant; 0=no damage to plant)): 0%; pest or weed control at 62.5 g/ha ([10]; 62.5 g ai/ha, 100=total damage to plant, 0=no damage to plant, read-out: Foxtail, Giant damage rating): 0%; pest or weed control at 250 g/ha ([10]; 250 g ai/ha, read-out: Foxtail, Giant damage rating (100=total damage to plant; 0=no damage to plant)): 10%; pest or weed control at 15.625 g/ha ([11]; 15.625 g ai/ha, read-out: Pigweed, Redroot damage rating (100=total damage to plant; 0=no damage to plant)): 0%; pest or weed control at 62.5 g/ha ([11]; 62.5 g ai/ha, 100=total damage to plant, 0=no damage to plant, read-out: Pigweed, Redroot damage rating): 0%; pest or weed control at 250 g/ha ([11]; 250 g ai/ha, read-out: Pigweed, Redroot damage rating (100=total damage to plant; 0=no damage to plant)): 0%; pest or weed control at 15.625 g/ha ([12]; 15.625 g ai/ha, read-out: Velvetleaf damage rating (100=total damage to plant; 0=no damage to plant)): 0%; pest or weed control at 62.5 g/ha ([12]; 62.5 g ai/ha, 100=total damage to plant, 0=no damage to plant, read-out: Velvetleaf damage rating): 0%; pest or weed control at 250 g/ha ([12]; 250 g ai/ha, read-out: Velvetleaf damage rating (100=total damage to plant; 0=no damage to plant)): 0%
